Results published in patent US20260206756A1, “COMPOUNDS AND METHODS OF TREATING OR PREVENTING A BACTERIAL INFECTION IN A PLANT” (Ohio State Innovation Foundation, priority 2023, published 2026).
≈ marks a conversion by molar mass, not a printed value. Entries after “also recorded” stand apart in the source; their conditions may differ. Like-named read-outs stand apart in the source and are kept apart here.

What was measured:
[1] = test system: ‘California Wonder’ pepper seeds; assay: Phytotoxicity on pepper seeds (germination, root and shoot length); type: in vivo, Capsicum annuum; conditions: 14 days post treatment; PCs 200 μM; 1.2% thymol; 2% 2,4-D
Method: (§1) Phytotoxicity of the ten selected PCs on pepper tissues. The toxicity of the PCs to plant tissues was assessed on pepper seeds, seedlings, and fruits. […]
Toxicity on seeds. In 2 ml sterile glass vials, 1.5 ml of 1% molten water agar was prepared and supplemented with 200 μM of PCs. Four seeds (‘California Wonder’) were sown into the vials. […] After incubation, seed germination percentage, germling root and shoot length, and necrotic and chlorotic symptoms were recorded from eight treated seeds per treatment group. This was performed twice.

[2] = test system: ‘California Wonder’ pepper seedlings; assay: Phytotoxicity on pepper seedling cotyledons; type: in vivo, Capsicum annuum; conditions: 7 days post application; PCs 200 μM; 1.2% thymol; 2% 2,4-D
Method: as §1
Toxicity on seedlings. ‘California Wonder’ pepper seeds were sown in sterile 2 ml glass vials containing 1.5 ml of 1% molten water agar. Four seeds were sown in each vial and incubated for 14 days in the dark at room temperature for the seedlings to sprout. Fifty microliters of PCs (200 μM final concentration) were deposited onto the cotyledons of the seedlings and incubated for another 7 days. After 7 days, necrotic and chlorotic symptoms were assessed for 16 treated seedlings per treatment group. This was performed twice.

[3] = test system: ‘Sunset’ sweet bell pepper fruit; assay: Phytotoxicity on bell pepper fruits; type: in vivo, Capsicum annuum; conditions: 7 days post treatment; PCs 200 μM; 1.2% thymol; 2% 2,4-D
Method: as §1
Toxicity on bell pepper fruits. Pepper fruits were thoroughly washed in soapy water and dried prior to PC treatment. On the surface of each fruit Sul of the PCs (200 μM final concentration) were deposited and air dried under a laminar hood for 30 min. The fruits were incubated in the dark at room temperature and monitored daily for necrotic and chlorotic symptoms. This was performed twice.

[4] = test system: Pseudomonas syringae pv. syringae (Pss) SM1030-14; assay: Dose-response assay (MIC/MBC) in M9 minimal broth; conditions: Pseudomonas syringae, 48 h
Method: (§2) Primary screening of 4,182 SMs was conducted using a high throughput screening method to identify SMs that inhibited the growth of Pss SM1042-14R strain. A fresh bacterial culture of SM1042-14R was grown in M9 minimal broth in a shaking incubator (180 rpm) for 12 h at 28° C. The bacterial culture was normalized to a final optical density (OD600) of 0.05 (c.a., 8.0×10^7 CFU/ml) using a Genesys 20 spectrophotometer (Thermo Scientific, Rockford, IL, USA). In a sterile flat-bottom 96-well plate, 98 μl of the normalized bacterial suspension was challenged with 2 μl of SMs (final concentration of 200 μM). Controls were bacteria challenged with 2% DMSO (positive control; μc+), 50 μg/ml kanamycin (negative control; μc−), or M9 broth alone (blank control). The plate was incubated in a Sunrise Tecan kinetic microplate reader (Tecan Group Ltd., San Jose, CA, USA) for 48 h at 28° C. OD600 was measured every 30 min.
(§3) The plate was agitated for 15 s at 180 rpm before reading the OD600. Growth inhibition of SM1042-14R by the SMs was calculated using the following formula: % of inhibition=(μc+−X)/(μc+−μc−)×100, where μc+ and μc− is the average final OD600 of the positive and negative controls, respectively, and X is the final OD600 of each of the bacterial culture treated with a designated SM. After the 48 h of incubation with the SMs at 28° C., the viability of the bacterial culture was assessed by plating 5 μl of the culture on YDC (Yeast Dextrose Carbonate) agar medium, incubating the plate at 28° C. and monitoring any bacterial colonies on the plate after 48 h.
(§4) A dose-response assay was conducted with the 15 PCs identified during the primary screening against 10 Pss strains including the model strain, SM1042-14R. The dose-response assay was conducted as described above with concentrations of PCs ranging from 3.125 to 500 μM. Pss treated with non-amended M9 minimal media, 2% DMSO, or 50 μg/ml kanamycin were used as controls. The plate was incubated in a Sunrise Tecan kinetic microplate reader for 48 h at 28° C. The percentage of inhibition and cell viability were determined as described above.

[5] = test system: Pseudomonas syringae pv. syringae (Pss) SM155-18; assay: Dose-response assay (MIC/MBC) in M9 minimal broth; conditions: Pseudomonas syringae, 48 h
Method: as §2, §3, §4

[6] = test system: Pseudomonas syringae pv. syringae (Pss) SM914-13; assay: Dose-response assay (MIC/MBC) in M9 minimal broth; conditions: Pseudomonas syringae, 48 h
Method: (§5) Minimum inhibitory concentration (MIC) and minimum bactericidal concentration (MBC) of the 15 PCs against 10 Pss strains. A dose-response assay was conducted with the 15 PCs identified during the primary screening against 10 Pss strains including the model strain, SM1042-14R. The dose-response assay was conducted as described above with concentrations of PCs ranging from 3.125 to 500 μM. Pss treated with non-amended M9 minimal media, 2% DMSO, or 50 μg/ml kanamycin were used as controls. The plate was incubated in a Sunrise Tecan kinetic microplate reader for 48 h at 28° C. The percentage of inhibition and cell viability were determined as described above.

[7] = test system: Pss SM1042-14R on pepper seedlings; type: in vivo, Pseudomonas syringae pv. syringae; conditions: 200 μM, 7 dpi; for Pseudomonas leaf spot incidence, Curative application / Pseudomonas leaf spot incidence, Preventative application: streptomycin 200 μg/ml, CuSO4 200 μM
[8] = test system: Pseudomonas syringae pv. syringae (Pss) SM04-2018-04; assay: Dose-response assay (MIC/MBC) in M9 minimal broth; conditions: Pseudomonas syringae, 48 h
Method: as §5

ten Pss strains = assay: Dose-response assay (MIC/MBC), summary across ten Pss strains; type: cell-based, Pseudomonas syringae pv. syringae; conditions: Pseudomonas syringae; across the different Pss strains; M9 broth; read-out: MICs and MBCs
[9] = test system: Pseudomonas syringae pv. syringae (Pss) SM1038-14; assay: Dose-response assay (MIC/MBC) in M9 minimal broth; conditions: Pseudomonas syringae, 48 h
Method: as §5

[10] = test system: Pseudomonas syringae pv. syringae (Pss) SM51-19; assay: Dose-response assay (MIC/MBC) in M9 minimal broth; conditions: Pseudomonas syringae, 48 h
Method: as §5

[11] = test system: Pseudomonas syringae pv. syringae (Pss) SM1031-14; assay: Dose-response assay (MIC/MBC) in M9 minimal broth; conditions: Pseudomonas syringae, 48 h
Method: as §2, §3, §4

[12] = test system: Pseudomonas syringae pv. syringae (Pss) SM109-18; assay: Dose-response assay (MIC/MBC) in M9 minimal broth; conditions: Pseudomonas syringae, 48 h
Method: as §2, §3, §4

[13] = test system: Pseudomonas syringae pv. syringae (Pss) SM156-18; assay: Dose-response assay (MIC/MBC) in M9 minimal broth; conditions: Pseudomonas syringae, 48 h
Method: as §5

[14] = test system: Pss SM1042-14R in infested pepper seeds; assay: Antimicrobial efficacy on pepper seeds artificially infested with Pss; type: in vivo, Pseudomonas syringae pv. syringae; conditions: 30 dpi, 200 μM, 20 min soak
Method: Antimicrobial efficacy of ten selected PCs on pepper seeds artificially infested with Pss SM1042-14R. ‘California Wonder’ pepper seeds were used for artificial infestation with Pss SM1042-14R and PC treatment. Inoculum of Pss SM1042-14R was prepared by growing SM1042-14R in M9 minimal medium overnight as described above. The OD600 was adjusted to 0.1; approximately 1×10^8 CFU/ml. The adjusted inoculum (45 ml of inoculum for 4 g seeds) was transferred to a sterile glass beaker and placed in a Nucerite desiccator (Nalge Sybron, Milwaukee, WI, USA). Seeds were vacuum infiltrated with inoculum at 15 PSI for 5 min. Infested seeds were air-dried in a laminar flow hood at room temperature for 12 h. The dried seeds were transferred to 5 ml sterile tubes and soaked in 1 ml of PCs (200 μM) diluted in sterile water for 20 min. The seeds were air-dried again. Seed aliquots were collected at 1, 3-, 10-, 20-, and 30-days post infestation (dpi, 10 seeds per treatment group per time point). Bacterial populations were estimated by macerating five batches of two seeds per treatment group in 400 μl of 1×PBS in a Whirl Pak bag. […] This was performed twice.

Pss SM1042-14R = assay: Antimicrobial resistance studies (single step and sequential passage); conditions: Pseudomonas syringae, SM104214R
Method: Antimicrobial resistance studies. […] For the single-step resistance, M9 agar medium amended with 2×MBC of PCs was prepared in a sterile 24-well plate. An overnight culture of SM1042-14R was normalized to OD600 of 1.0 (approximately 10^9 CFU/well). In each of the wells containing different PCs, 50 μl of the adjusted bacterial culture was plated onto the 24 well agar plate. The plate was sealed using parafilm and incubated in the dark at 28° C. for 15 days. After 15 days, any colonies that grew on the 24-well plate were evaluated for MIC and MBC as described above. The experiment was conducted with three replicates per treatment group. SM1042-14R plated on non-amended M9 agar medium, 2% DMSO or 50 μg/ml kanamycin were used as controls.
For sequential passage (sublethal dose) resistance assay, SM1042-14R was grown in M9 minimal broth and adjusted to OD600 of 0.05 (approximately 10^7 CFU/ml). In a 96-well plate, 98 μl of the adjusted bacterial culture was transferred and 0.75×MBC of PC (concentration that allows approximately 70% growth inhibition) was added into the wells. Plates were incubated at 28° C. with 150 rpm shaking for 24 h in the dark. After incubation, cells were centrifuged, the pellet was resuspended in fresh M9 broth amended with 0.75×MBC of PC and grown as described above. […] After 15 passages, MIC, and MBC of the PCs to SM1042-14R were determined as described above. […]

pollinator honeybees = assay: Honeybee acute topical contact toxicity bioassay; type: in vivo; conditions: 48 h, PCs 200 μM, thiamethoxam 0.35 μg per bee
Method: Toxicity of the ten PCs on pollinator honeybees. To determine whether the ten selected PCs were toxic to honeybees, an acute topical bioassay was used as recommended by the Ecological Effects Test Guidelines (OCSPP 8503020: Honeybee Acute Contact Toxicity Test). Frames of late stage capped brood were collected from two healthy colonies headed by New Carniolan queens maintained at The Ohio State University Wooster Campus. New adult bees were allowed to emerge in a dark incubator maintained at 32° C. and 60-80% relative humidity and brushed into bulk storage cages daily. Bees were fed sucrose in water (1:1 w/w) and aged for three days in the incubator. Cages of 3-day-old honeybees were anesthetized using carbon dioxide for 2 min and separated into groups of 20 housed in paper cups (UNIQ 6 oz Cups; Frozen Dessert Supplies, Rexburg, Idaho, USA) covered with #20 cotton cheesecloth. The ten PCs were prepared at 200 μM concentration in DMSO. Small groups of honeybees were anaesthetized again with 30 s of carbon dioxide before topical application. The honeybees were individually treated by topically applying lul of the PCs on the dorsal side of thorax using a micro applicator (Hamilton PB-600, Reno, Nevada, USA). […] The mortality of the bees was recorded daily for 48 h. […]

[15] = preventative (1 day prior to inoculation)

SMILES	MBC [4]	MIC [4]	MBC [5]	MIC [5]	MBC [6]	MIC [6]	Pseudomonas leaf spot incidence, Curative application [7]	Pseudomonas leaf spot incidence, Preventative application [7]	Pss reduction compared to the DMSO group ([7]; curative (1 dpi))	MBC [8]	MIC [8]	MBC (ten Pss strains)	MBC [9]	MIC [9]	MBC [10]	MIC [10]	MBC [11]	MIC [11]	MBC [12]	MIC [12]	further results
O=C(O)COc1ccc(Cl)cc1Cl [2,4-D]																					root length of germlings [1]: 1.5±0.7 cm; shoot length of germlings [1]: 0 cm; necrotic or chlorotic symptoms on seedling cotyledons [2]: severe necrotic and chlorotic symptoms; also recorded: caused necrotic or chlorotic symptoms; necrotic or chlorotic symptoms on pepper fruit surface [3]: severe necrotic and chlorotic symptoms; also recorded: caused chlorosis and deformation of the fruit surface
COc1cc(CN(C)Cc2ccccc2)ccc1OCC(O)CN1CCCCCCC1 (stereo not drawn) [PC9]	200 µM (≈ 85.3 µg/mL)	100 µM (≈ 42.7 µg/mL)	200 µM (≈ 85.3 µg/mL)	100 µM (≈ 42.7 µg/mL)	200 µM (≈ 85.3 µg/mL)	200 µM (≈ 85.3 µg/mL)	71%	100%	1.9±0.7 log CFU/g	200 µM (≈ 85.3 µg/mL)	100 µM (≈ 42.7 µg/mL)	50 to 200 µM (≈ 21.3 to 85.3 µg/mL)	200 µM (≈ 85.3 µg/mL)	100 µM (≈ 42.7 µg/mL)	200 µM (≈ 85.3 µg/mL)	100 µM (≈ 42.7 µg/mL)	200 µM (≈ 85.3 µg/mL)	200 µM (≈ 85.3 µg/mL)	200 µM (≈ 85.3 µg/mL)	100 µM (≈ 42.7 µg/mL)	MBC [13]: 200 µM (≈ 85.3 µg/mL); MIC [13]: 200 µM (≈ 85.3 µg/mL)
Cn1cc(CNCCCn2ccnc2)c(-c2ccc(Oc3ccccc3)cc2)n1 [PC10]	200 µM (≈ 77.5 µg/mL)	200 µM (≈ 77.5 µg/mL)	200 µM (≈ 77.5 µg/mL)	200 µM (≈ 77.5 µg/mL)	200 µM (≈ 77.5 µg/mL)	200 µM (≈ 77.5 µg/mL)	71%	100%		200 µM (≈ 77.5 µg/mL)	200 µM (≈ 77.5 µg/mL)	50 to 200 µM (≈ 19.4 to 77.5 µg/mL)	200 µM (≈ 77.5 µg/mL)	200 µM (≈ 77.5 µg/mL)	200 µM (≈ 77.5 µg/mL)	200 µM (≈ 77.5 µg/mL)	200 µM (≈ 77.5 µg/mL)	200 µM (≈ 77.5 µg/mL)	200 µM (≈ 77.5 µg/mL)	200 µM (≈ 77.5 µg/mL)	reduction in Pss load in infested seeds [14]: 1.9±0.2 log CFU/g; MBC [13]: 200 µM (≈ 77.5 µg/mL); MIC [13]: 200 µM (≈ 77.5 µg/mL)
[H]/N=C(/N)N[C@H]1[C@H](O)[C@@H](O)[C@H](O[C@@H]2O[C@@H](C)[C@](O)(C=O)[C@H]2O[C@@H]2O[C@@H](CO)[C@H](O)[C@@H](O)[C@@H]2NC)[C@@H](N/C(N)=N\[H])[C@@H]1O [streptomycin]							86%	71%	2.2±0.5 log CFU/g												Pseudomonas leaf spot incidence, Curative application ([7]; listed as Strep): 86%; Pseudomonas leaf spot incidence, Preventative application ([7]; listed as Strep): 71%; disease severity (number of lesions per two leaves) ([7]; curative (1 dpi), first trial): 24.4±18.2 lesions; disease severity (number of lesions per two leaves) [7, 15]: 88.8±62.5 lesions; reduction in Pss load compared to the DMSO group [7, 15]: 1.7±0.8 log CFU/g; reduction in Pss load in infested seeds [14]: 2.0±0 log CFU/g; MBC (Pss SM1042-14R; SM1042-14R colonies after the sequential passages resistance assay): > 25 µg/mL; MBC (Pss SM1042-14R; original culture from glycerol stock): 12.5 µg/mL (≈ 21.5 µM)
CN1COCN(Cc2cnc(Cl)s2)/C1=N\[N+](=O)[O-] [thiamethoxan, thiamethoxam]																					honeybee mortality (pollinator honeybees): 100%
